Data as given in patent US6527759B1, “Ultrasound assembly for use with light activated drugs” (Ekos Corporation, priority 1995, dated 2003).

Tests used:
[1] = Relative efficiency of bile salts as co-solubilizers for SnEt2 in MCT oil, egg phospholipids and ethanol (Example 6); format: physicochemical; conditions: egg phospholipids, ethanol
Experimental: (§1) Several emulsions are prepared as described above. In 5 ml glass tubes, medium chain length oil known as MCT oil (Miglyol 801, Hüls America, Piscataway, N.J.) is combined with 10 mg/gm SnEt2 plus excipients as described above. Certain emulsions also included additional excipients in the following concentrations: ethanol at […]; egg phospholipids at 75 mg/gm oil; and sodium cholate at 10 mg/gm oil. After incubating for 30 minutes at 55° C., the tubes stand overnight at room temperature (19°-22° C.). The tubes arc centrifuged to remove bulk precipitates, and supernatants are filtered through 0.45 μm nylon membrane to remove any undissolved drug. Aliquots of filtrate are then diluted in chloroform:isopropyl alcohol (1:1) for spectrophotometric determination of drug concentration (absorbance at 662 nm). Reference standards are prepared with known concentrations of SnEt2 in the same solvent.
This example illustrates relative efficiencies of several bile salts. Mixtures of MCT oil, egg phospholipids, ethanol, and SnEt2 are incubated with different bile salts, all at 4.6 mM^1, under the same conditions described above. […] Cholic acid lacks solubilizing action in the oil.

[2] = Drug solubility in oil: SnEt2 in MCT oil with excipient combinations (Example 5); format: physicochemical; conditions: emulsion with excipients vs MCT oil alone
Experimental: as §1
The concentration of SnEt2 in each of the emulsions is illustrated in Table 2. As illustrated, the concentration of SnEt2 in the emulsion can be more than ten times the concentration in MCT oil alone.

What does the source list for CCOC(=O)C1=Cc2c3nc(cc4nc(cc5[n-]c(cc6[n-]c2c(C)c6CC)c(C)c5CC)C(C)=C4CC)[C@@H](C)[C@]13CC.[Cl-].[Cl-].[Sn] (racemic) [SnEt2, tin ethyl etiopurpurin]?
SnEt2 Concentration ([1]; bile compound: Cholic acid, 4.6 mM): 1.33 mg/gm oil; SnEt2 Concentration ([1]; bile compound: Na Tauracholate, 4.6 mM): 1.13 mg/gm oil; SnEt2 Concentration ([1]; bile compound: Na cholate, 4.6 mM): 3.70 mg/gm oil; SnEt2 Concentration ([1]; bile compound: Na deoxycholate, 4.6 mM): 2.31 mg/gm oil; SnEt2 Concentration ([1]; bile compound: Na glycocholate, 4.6 mM): 2.22 mg/gm oil; SnEt2 Concentration ([1]; bile compound: None): 1.26 mg/gm oil; concentration of SnEt2 in the emulsion relative to the concentration in MCT oil alone [2]: more than ten
